Experiments:
D(1B) dopamine receptor [1] = target: T1, D(1B) dopamine receptor (Homo sapiens, UniProt P21918); assay: Binding affinity to human dopamine D5 receptor
Histamine H2 receptor [2] = target: T2, Histamine H2 receptor (Homo sapiens, UniProt P25021); conditions: 10 uM
Description: Inhibition of human histamine H2 receptor at 10 uM

[3] = target: T3, Muscarinic acetylcholine receptor M3 (Homo sapiens, UniProt P20309); assay: Binding affinity to human muscarinic M3 receptor
Target sequence in this assay (P20309 whole entry): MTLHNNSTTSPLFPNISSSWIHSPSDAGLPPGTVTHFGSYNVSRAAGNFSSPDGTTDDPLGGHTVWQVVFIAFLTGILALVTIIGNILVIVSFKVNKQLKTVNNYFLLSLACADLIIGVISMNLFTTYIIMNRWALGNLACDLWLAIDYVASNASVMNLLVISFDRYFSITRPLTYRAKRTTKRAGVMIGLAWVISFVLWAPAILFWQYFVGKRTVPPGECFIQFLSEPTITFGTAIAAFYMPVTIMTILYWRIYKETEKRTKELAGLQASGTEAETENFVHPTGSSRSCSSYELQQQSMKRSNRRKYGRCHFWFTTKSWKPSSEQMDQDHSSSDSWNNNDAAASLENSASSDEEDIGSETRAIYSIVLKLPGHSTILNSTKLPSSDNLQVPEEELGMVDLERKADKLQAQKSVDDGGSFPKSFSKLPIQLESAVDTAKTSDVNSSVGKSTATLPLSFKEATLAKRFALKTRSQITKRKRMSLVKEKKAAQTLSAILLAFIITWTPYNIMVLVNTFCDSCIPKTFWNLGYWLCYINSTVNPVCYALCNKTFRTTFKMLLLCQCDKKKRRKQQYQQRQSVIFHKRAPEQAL

Histamine H2 receptor [4] = target: T2, Histamine H2 receptor; assay: Binding affinity to human histamine H2 receptor
[5] = target: T3, Muscarinic acetylcholine receptor M3; assay: Displacement of [3H]QNB from human muscarinic M3 receptor at 10 uM
Target sequence in this assay (P20309 whole entry, looked up): as the sequence (P20309 whole entry) above

D(1B) dopamine receptor [6] = target: T1, D(1B) dopamine receptor; assay: Displacement of [3H]SCH23390 from human dopamine D5 receptor at 10 uM

T1 sequence (P21918 whole entry): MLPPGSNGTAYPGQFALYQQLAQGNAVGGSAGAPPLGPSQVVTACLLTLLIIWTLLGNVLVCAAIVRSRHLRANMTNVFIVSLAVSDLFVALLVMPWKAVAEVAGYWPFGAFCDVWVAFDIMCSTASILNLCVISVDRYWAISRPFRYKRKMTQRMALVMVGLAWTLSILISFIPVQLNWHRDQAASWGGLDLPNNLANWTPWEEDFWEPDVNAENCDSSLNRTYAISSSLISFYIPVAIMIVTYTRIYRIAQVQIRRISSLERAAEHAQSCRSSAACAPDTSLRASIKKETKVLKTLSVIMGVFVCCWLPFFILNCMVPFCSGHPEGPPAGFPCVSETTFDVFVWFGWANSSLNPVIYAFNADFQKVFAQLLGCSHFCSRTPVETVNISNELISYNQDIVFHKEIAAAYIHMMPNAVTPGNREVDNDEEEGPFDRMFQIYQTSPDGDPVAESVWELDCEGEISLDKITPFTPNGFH
T2 sequence (P25021 whole entry): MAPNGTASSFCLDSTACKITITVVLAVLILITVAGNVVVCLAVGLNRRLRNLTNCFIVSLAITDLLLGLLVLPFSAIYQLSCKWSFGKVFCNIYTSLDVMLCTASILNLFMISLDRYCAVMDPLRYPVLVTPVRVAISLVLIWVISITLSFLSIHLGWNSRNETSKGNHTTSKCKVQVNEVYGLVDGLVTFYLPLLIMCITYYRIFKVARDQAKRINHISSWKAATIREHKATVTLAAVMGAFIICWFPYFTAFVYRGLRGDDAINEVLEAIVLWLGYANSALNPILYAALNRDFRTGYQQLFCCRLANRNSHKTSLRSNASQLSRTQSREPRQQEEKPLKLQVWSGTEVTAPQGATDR

Row | Ki (D(1B) dopamine receptor [1]) | inhibition (Histamine H2 receptor [2]) | Ki [3] | Ki (Histamine H2 receptor [4]) | inhibition [5] | inhibition (D(1B) dopamine receptor [6]) | Structure (SMILES)
1 | > 10 µM | > 50% | > 10 µM | > 10 µM |  |  | C[C@@]12CCC[C@]3(C)C(=O)O[C@H](C[C@@]4(CO4)[C@]1(O)CCc1ccoc1)[C@H]23 [LEONOTININ]
2 |  |  |  |  | > 50% |  | CO[C@H]1C[C@]2(CC[C@@]3(O2)[C@]2(CO2)C[C@@H](OC(C)=O)[C@@H]2[C@]34CCC[C@]2(C)C(=O)OC4)CO1
3 |  |  |  |  | > 50% | > 50% | C[C@@]12CCC[C@]3(C)C(=O)O[C@H](C[C@@]4(CO4)[C@]14CC[C@]1(COC(O)C1)O4)[C@H]23 (mixture of isomers)

Source: ChEMBL document CHEMBL2034903, “Bis-spirolabdane diterpenoids from Leonotis nepetaefolia” (J Nat Prod, 2012)
